Test results reported in patent publication US20090156518A1, “STABLE PHARMACEUTICAL COMPOSITION COMPRISING BETA-LACTAM ANTIBIOTIC AND BUFFER” (priority 2006, published 2009).

Assay: amounts of β-lactam antibiotic, β-lactamase inhibitor (C18 reverse-phase LC, UV-VIS) and aminoglycoside (HPLC-ELSD) in solution over time
Assay type: physicochemical
Experimental: The amounts of β-lactam antibiotics and β-lactamase inhibitor were determined using C18 reverse-phase LC and UV-VIS detector (Tianjin Hemay BioTech Co., Ltd., analysis method No. HM-K-03). The content of aminoglycoside antibiotics was measured using reverse-phase HPLC and evaporation-light-scattering detector (ELSD detector) (Tianjin Hemay BioTech Co., Ltd., analysis method No. HM-K-08). The amount of antibiotic component at each time point was expressed as a percentage with respect to the amount at the initial time (herein defined as 100%). The relative amount of each antibiotic component in the composition at each time point was expressed as peak area ratio with respect to the corresponding peak area of an external standard.

**Q.** With `CCN1CCN(C(=O)N[C@@H](C(=O)N[C@@H]2C(=O)N3C(C(=O)O)=C(CSc4nnnn4C)CS[C@H]23)c2ccc(O)cc2)C(=O)C1=O` [Cefoperazone sodium] as the molecule, how does the “amount of component as percentage with respect to the amount at the initial time” value (“amount of component as percentage” below) (Example 4: cefoperazone sodium 4 g, sulbactam sodium 0.5 g, gentamicin 80 mg, citrate pH 6.75, 200 mL water, room temperature, Time 0 h) read?
**A.** Its value is 101.4%.

**Q.** What about the “amount of component as percentage” value (Example 4: cefoperazone sodium 4 g, sulbactam sodium 0.5 g, gentamicin 80 mg, citrate pH 6.75, 200 mL water, room temperature, Time 1 h) of the same molecule?
**A.** Its value is 98.66%.

**Q.** And the “amount of component as percentage” value (Example 4: cefoperazone sodium 4 g, sulbactam sodium 0.5 g, gentamicin 80 mg, citrate pH 6.75, 200 mL water, room temperature, Time 2 h)?
**A.** The value was 98.79%.

**Q.** And the “amount of component as percentage” value (Example 4: cefoperazone sodium 4 g, sulbactam sodium 0.5 g, gentamicin 80 mg, citrate pH 6.75, 200 mL water, room temperature, Time 4 h)?
**A.** Its value is 101.5%.

**Q.** And the “amount of component as percentage” value (Example 4: cefoperazone sodium 4 g, sulbactam sodium 0.5 g, gentamicin 80 mg, citrate pH 6.75, 200 mL water, room temperature, Time 6 h)?
**A.** The value was 107.4%.

**Q.** And the “amount of component as percentage” value (Example 5: freeze-dried cefoperazone sodium 4 g, sulbactam sodium 0.5 g, citrate pH 6.75, + amikacin sulfate 500 mg, 7 days 0° C., dissolved in 100 mL water, Time 0 h)?
**A.** The value was 101.4%.

**Q.** And the “amount of component as percentage” value (Example 5: freeze-dried cefoperazone sodium 4 g, sulbactam sodium 0.5 g, citrate pH 6.75, + amikacin sulfate 500 mg, 7 days 0° C., dissolved in 100 mL water, Time 1 h)?
**A.** The value was 98.66%.

**Q.** And the “amount of component as percentage” value (Example 5: freeze-dried cefoperazone sodium 4 g, sulbactam sodium 0.5 g, citrate pH 6.75, + amikacin sulfate 500 mg, 7 days 0° C., dissolved in 100 mL water, Time 2 h)?
**A.** Its value is 98.79%.

**Q.** And the “amount of component as percentage” value (Example 5: freeze-dried cefoperazone sodium 4 g, sulbactam sodium 0.5 g, citrate pH 6.75, + amikacin sulfate 500 mg, 7 days 0° C., dissolved in 100 mL water, Time 4 h)?
**A.** Its value is 101.5%.

**Q.** And the “amount of component as percentage” value (Example 5: freeze-dried cefoperazone sodium 4 g, sulbactam sodium 0.5 g, citrate pH 6.75, + amikacin sulfate 500 mg, 7 days 0° C., dissolved in 100 mL water, Time 6 h)?
**A.** The value was 107.4%.

**Q.** And the “amount of component as percentage” value (Example 6: freeze-dried cefoperazone sodium 4 g, sulbactam sodium 1 g, citrate pH 6.75, + etimicin sulfate 200 mg, 7 days 0° C., dissolved in 100 mL water, Time 0 h)?
**A.** Its value is 110.4%.

**Q.** And the “amount of component as percentage” value (Example 6: freeze-dried cefoperazone sodium 4 g, sulbactam sodium 1 g, citrate pH 6.75, + etimicin sulfate 200 mg, 7 days 0° C., dissolved in 100 mL water, Time 1 h)?
**A.** The value was 99.48%.

**Q.** What about the “amount of component as percentage” value (Example 6: freeze-dried cefoperazone sodium 4 g, sulbactam sodium 1 g, citrate pH 6.75, + etimicin sulfate 200 mg, 7 days 0° C., dissolved in 100 mL water, Time 2 h) of the same molecule?
**A.** Its value is 101.3%.

**Q.** What about the “amount of component as percentage” value (Example 6: freeze-dried cefoperazone sodium 4 g, sulbactam sodium 1 g, citrate pH 6.75, + etimicin sulfate 200 mg, 7 days 0° C., dissolved in 100 mL water, Time 4 h) of the same molecule?
**A.** Its value is 98.66%.

**Q.** And the “amount of component as percentage” value (Example 6: freeze-dried cefoperazone sodium 4 g, sulbactam sodium 1 g, citrate pH 6.75, + etimicin sulfate 200 mg, 7 days 0° C., dissolved in 100 mL water, Time 6 h)?
**A.** Its value is 98.02%.

**Q.** And the “amount of component as percentage” value (Example 6: freeze-dried cefoperazone sodium 4 g, sulbactam sodium 1 g, citrate pH 6.75, + etimicin sulfate 200 mg, 7 days 0° C., dissolved in 100 mL water, Time 8 h)?
**A.** Its value is 99.30%.

**Q.** What about the “amount of component as percentage” value (Example 14: freeze-dried cefoperazone sodium 4 g, sulbactam sodium 2 g, citrate pH 6.75, 7 days 0° C., in 100 mL water, 10 mL + gentamicin sulfate 16 mg, room temperature, Time 0 h) of the same molecule?
**A.** The value was 98.42%.

**Q.** What about the “amount of component as percentage” value (Example 14: freeze-dried cefoperazone sodium 4 g, sulbactam sodium 2 g, citrate pH 6.75, 7 days 0° C., in 100 mL water, 10 mL + gentamicin sulfate 16 mg, room temperature, Time 1 h) of the same molecule?
**A.** The value was 97.39%.

**Q.** What about the “amount of component as percentage” value (Example 14: freeze-dried cefoperazone sodium 4 g, sulbactam sodium 2 g, citrate pH 6.75, 7 days 0° C., in 100 mL water, 10 mL + gentamicin sulfate 16 mg, room temperature, Time 2 h) of the same molecule?
**A.** Its value is 97.46%.

**Q.** What about the “amount of component as percentage” value (Example 14: freeze-dried cefoperazone sodium 4 g, sulbactam sodium 2 g, citrate pH 6.75, 7 days 0° C., in 100 mL water, 10 mL + gentamicin sulfate 16 mg, room temperature, Time 4 h) of the same molecule?
**A.** The value was 94.70%.

**Q.** What about the “amount of component as percentage” value (Example 14: freeze-dried cefoperazone sodium 4 g, sulbactam sodium 2 g, citrate pH 6.75, 7 days 0° C., in 100 mL water, 10 mL + gentamicin sulfate 16 mg, room temperature, Time 6 h) of the same molecule?
**A.** The value was 93.02%.

**Q.** What about the “amount of component as percentage” value (Example 15: freeze-dried cefoperazone sodium 4 g, sulbactam sodium 4 g, citrate pH 6.75, 7 days 0° C., in 100 mL water, 10 mL + gentamicin sulfate 16 mg, room temperature, Time 0 h) of the same molecule?
**A.** The value was 101.7%.

**Q.** And the “amount of component as percentage” value (Example 15: freeze-dried cefoperazone sodium 4 g, sulbactam sodium 4 g, citrate pH 6.75, 7 days 0° C., in 100 mL water, 10 mL + gentamicin sulfate 16 mg, room temperature, Time 1 h)?
**A.** The value was 96.06%.

**Q.** What about the “amount of component as percentage” value (Example 15: freeze-dried cefoperazone sodium 4 g, sulbactam sodium 4 g, citrate pH 6.75, 7 days 0° C., in 100 mL water, 10 mL + gentamicin sulfate 16 mg, room temperature, Time 2 h) of the same molecule?
**A.** Its value is 95.72%.

**Q.** And the “amount of component as percentage” value (Example 15: freeze-dried cefoperazone sodium 4 g, sulbactam sodium 4 g, citrate pH 6.75, 7 days 0° C., in 100 mL water, 10 mL + gentamicin sulfate 16 mg, room temperature, Time 4 h)?
**A.** Its value is 97.32%.

**Q.** What about the “amount of component as percentage” value (Example 15: freeze-dried cefoperazone sodium 4 g, sulbactam sodium 4 g, citrate pH 6.75, 7 days 0° C., in 100 mL water, 10 mL + gentamicin sulfate 16 mg, room temperature, Time 6 h) of the same molecule?
**A.** The value was 69.95%.

**Q.** What about the “amount of component as percentage” value (Example 16: 10 mL of the final solution (cefoperazone sodium, tazobactam sodium, etimicin sulfate, citrate) + gentamicin sulfate 16 mg, Time 0 h) of the same molecule?
**A.** Its value is 92.44%.

**Q.** What about the “amount of component as percentage” value (Example 16: 10 mL of the final solution (cefoperazone sodium, tazobactam sodium, etimicin sulfate, citrate) + gentamicin sulfate 16 mg, Time 1 h) of the same molecule?
**A.** Its value is 104.6%.

**Q.** And the “amount of component as percentage” value (Example 16: 10 mL of the final solution (cefoperazone sodium, tazobactam sodium, etimicin sulfate, citrate) + gentamicin sulfate 16 mg, Time 2 h)?
**A.** Its value is 102.4%.

**Q.** And the “amount of component as percentage” value (Example 16: 10 mL of the final solution (cefoperazone sodium, tazobactam sodium, etimicin sulfate, citrate) + gentamicin sulfate 16 mg, Time 4 h)?
**A.** The value was 97.95%.

**Q.** What about the “amount of component as percentage” value (Example 16: 10 mL of the final solution (cefoperazone sodium, tazobactam sodium, etimicin sulfate, citrate) + gentamicin sulfate 16 mg, Time 6 h) of the same molecule?
**A.** The value was 98.90%.

**Q.** What about the “amount of component as percentage” value (Example 16: 10 mL of the final solution (cefoperazone sodium, tazobactam sodium, etimicin sulfate, citrate) + gentamicin sulfate 16 mg, Time 8 h) of the same molecule?
**A.** Its value is 102.9%.

**Q.** What about the “amount of component as percentage” value (Example 16: freeze-dried cefoperazone sodium 4 g, tazobactam sodium 1 g, citrate pH 6.75, 7 days 0° C., in 100 mL water, 10 mL + etimicin sulfate 20 mg, room temperature, Time 0 h) of the same molecule?
**A.** The value was 102.9%.

**Q.** And the “amount of component as percentage” value (Example 16: freeze-dried cefoperazone sodium 4 g, tazobactam sodium 1 g, citrate pH 6.75, 7 days 0° C., in 100 mL water, 10 mL + etimicin sulfate 20 mg, room temperature, Time 1 h)?
**A.** Its value is 108.6%.

**Q.** What about the “amount of component as percentage” value (Example 16: freeze-dried cefoperazone sodium 4 g, tazobactam sodium 1 g, citrate pH 6.75, 7 days 0° C., in 100 mL water, 10 mL + etimicin sulfate 20 mg, room temperature, Time 2 h) of the same molecule?
**A.** Its value is 104.6%.

**Q.** What about the “amount of component as percentage” value (Example 16: freeze-dried cefoperazone sodium 4 g, tazobactam sodium 1 g, citrate pH 6.75, 7 days 0° C., in 100 mL water, 10 mL + etimicin sulfate 20 mg, room temperature, Time 4 h) of the same molecule?
**A.** Its value is 99.50%.

**Q.** And the “amount of component as percentage” value (Example 16: freeze-dried cefoperazone sodium 4 g, tazobactam sodium 1 g, citrate pH 6.75, 7 days 0° C., in 100 mL water, 10 mL + etimicin sulfate 20 mg, room temperature, Time 6 h)?
**A.** The value was 98.91%.

**Q.** And the “amount of component as percentage” value (Example 16: freeze-dried cefoperazone sodium 4 g, tazobactam sodium 1 g, citrate pH 6.75, 7 days 0° C., in 100 mL water, 10 mL + etimicin sulfate 20 mg, room temperature, Time 8 h)?
**A.** The value was 103.4%.

**Q.** And the “amount of component as percentage” value (Example 17: freeze-dried cefoperazone sodium 4 g, sulbactam sodium 1 g, citrate pH 6.75, 7 days 0° C., in 100 mL water, 10 mL + amikacin sulfate 40 mg, room temperature, Time 0 h)?
**A.** The value was 92.30%.

**Q.** And the “amount of component as percentage” value (Example 17: freeze-dried cefoperazone sodium 4 g, sulbactam sodium 1 g, citrate pH 6.75, 7 days 0° C., in 100 mL water, 10 mL + amikacin sulfate 40 mg, room temperature, Time 1 h)?
**A.** Its value is 94.80%.

**Q.** And the “amount of component as percentage” value (Example 17: freeze-dried cefoperazone sodium 4 g, sulbactam sodium 1 g, citrate pH 6.75, 7 days 0° C., in 100 mL water, 10 mL + amikacin sulfate 40 mg, room temperature, Time 2 h)?
**A.** Its value is 94.06%.

**Q.** What about the “amount of component as percentage” value (Example 17: freeze-dried cefoperazone sodium 4 g, sulbactam sodium 1 g, citrate pH 6.75, 7 days 0° C., in 100 mL water, 10 mL + amikacin sulfate 40 mg, room temperature, Time 4 h) of the same molecule?
**A.** Its value is 94.12%.

**Q.** And the “amount of component as percentage” value (Example 17: freeze-dried cefoperazone sodium 4 g, sulbactam sodium 1 g, citrate pH 6.75, 7 days 0° C., in 100 mL water, 10 mL + amikacin sulfate 40 mg, room temperature, Time 6 h)?
**A.** Its value is 93.15%.

**Q.** What about the “amount of component as percentage” value (Example 17: freeze-dried cefoperazone sodium 4 g, sulbactam sodium 1 g, citrate pH 6.75, 7 days 0° C., in 100 mL water, 10 mL + amikacin sulfate 40 mg, room temperature, Time 8 h) of the same molecule?
**A.** The value was 94.50%.
